Patent publication US20230210891A1, “POLYSACCHARIDE COMPOSITIONS AND THERAPEUTIC GELS” (The University of Birmingham, priority 2020, published 2023)
Entries after “also recorded” stand apart in the source; their conditions may differ.

Assays:
Collagen - Rat tail = target: T1, Collagen - Rat tail (Rattus norvegicus, UniProt P02454+P02466); experiment: Collagen fibrillogenesis assay (turbidity, 405 nm plate reader); assay type: biochemical; conditions: for inhibition of collagen fibrillogenesis / collagen fibril formation: increasing doses of polymer
T1 construct: purchased Corning; host or cells: rat tail
Method: Collagen fibrillogenesis was undertaken using collagen acquired from Corning to assess the ability of carrageenans with different degrees of sulphation, gellan gum (LA) and heparan sulphate on their ability to alter fibrillogenesis.
• PBS - Dulbecco’s PBS pH 7.4 • Carrageenans (iota and kappa) (Sigma) • (CGLA) (Kelcogel; Lot #: 5C1623A) • Heparan sulphate (Tinzaparin - mw ~ 9000) • Collagen - Rat tail - Corning 4.04 mg/ml • Deionised water
1. Preparation of stock solutions: • a. A 0.2% (w/v) solution of both carrageenans, gellan and heparan in water were prepared. (0.1 g polymer in 50 ml water) • b. Mixtures were stirred until fully dispersed/hydrated. (prevent water loss by covering the beaker)
2. Preparation of Buffers: • a. PBS diluent buffer; • i. To 200 ml deionised water add sodium phosphate (0.35 g) (0.348 g)and sodium chloride (2.05 g) (2.061 g) • ii. Adjust pH to 7.40 and adjust final volume to 250 ml. • iii. Store at room temperature. • b. PBS reaction buffer; • i. To 200 ml deionised water add sodium phosphate (2.07 g) (2.081 g) and sodium chloride (4.09 g) (4.091 g) • ii. Adjust pH to 7.40. • iii. Add deionised water to create a final volume of 250 ml. • iv. Store at room temp.
3. Collagen fibrillogenesis assay: • a. Pipette […] of buffer (PBS) into rows A and B for blanks. • b. Standard curve generated in a dilution plate. Add 150 ml of each preparation into C1, D1 and E1. • c. Add 150 mL of sample to rows F1, G1 and H1. • d. Add […] of buffer (PBS) to the additional columns 2 to 12. • e. Using a multi-channel pipette, preform a 2-fold dilution by transferring […] from column 1 to column 2. Continue serial diluting through to column 12. Discard the extra […] from column 12. • f. Calculate volume of collagen needed to make 10 ml (enough for 1 plate) at a concentration of […] in chilled water and gently mix.
Target conc. (0.8 mg/ml)Collagen stock conc. in mg/ml × 10=ml of collagen required
10 ml- ?ml of collagen required= ??ml of water required • a. Add […] of collagen to each row (B to H). • b. Add 150 ml of phosphate buffer to all of the wells. • c. Incubate for 2-4 hrs at room temperature and analysed using 405 nm plate reader. (correct for the plate by using 570 nm reference)
Each sample was replicated 3 times, two polymers in each plate (2 plates total). Collagen standard and pbs only were obtained on each plate.

[1] = test system: rat experimental model of glaucoma; experiment: Study 2: intraocular pressure in rat experimental model of glaucoma (IC TGFβ1); assay type: in vivo; conditions: 10 µl eye drop twice a day, day 14 to 28
Method: A rat experimental model of glaucoma was used. All rats received twice weekly intracameral (IC) injections of 3.5 µl 5 µg/ml TGFβ1 from the start of the experiment (day 0) until the end (day 28). This establishes the experimental glaucoma model.
Intraocular pressure (IOP) measures were taken twice weekly using a rebound tonometer, between the hours of 9-11am (to reduce circadian fluctuations in IOP) and before TGFβ injections were administered.
On day 14 rats then also received a single 10 µl eye drop (ED) of either a composition of the invention or a composition representing the standard of care. The eyedrops were administered by pipette, twice a day, every day between day 14 and day 28. Gellan fluid gels were prepared as describe above, and the various sulphated polysaccharides investigated (dextran sulphate, fucoidan, or heparan sulphate) were mixed into the fluid gel at a concentration of 1 mg/ml prior to administration as a single formulation eye drop.
The most common eye drop prescribed clinically for the treatment of glaucoma is latanoprost 50 µg/ml (Xalatan®). Therefore, this treatment was used in this study for the standard of care (SOC).
The groups investigated in the study were as follows: […]

T1 sequence (P02454 152-1207 limits assumed): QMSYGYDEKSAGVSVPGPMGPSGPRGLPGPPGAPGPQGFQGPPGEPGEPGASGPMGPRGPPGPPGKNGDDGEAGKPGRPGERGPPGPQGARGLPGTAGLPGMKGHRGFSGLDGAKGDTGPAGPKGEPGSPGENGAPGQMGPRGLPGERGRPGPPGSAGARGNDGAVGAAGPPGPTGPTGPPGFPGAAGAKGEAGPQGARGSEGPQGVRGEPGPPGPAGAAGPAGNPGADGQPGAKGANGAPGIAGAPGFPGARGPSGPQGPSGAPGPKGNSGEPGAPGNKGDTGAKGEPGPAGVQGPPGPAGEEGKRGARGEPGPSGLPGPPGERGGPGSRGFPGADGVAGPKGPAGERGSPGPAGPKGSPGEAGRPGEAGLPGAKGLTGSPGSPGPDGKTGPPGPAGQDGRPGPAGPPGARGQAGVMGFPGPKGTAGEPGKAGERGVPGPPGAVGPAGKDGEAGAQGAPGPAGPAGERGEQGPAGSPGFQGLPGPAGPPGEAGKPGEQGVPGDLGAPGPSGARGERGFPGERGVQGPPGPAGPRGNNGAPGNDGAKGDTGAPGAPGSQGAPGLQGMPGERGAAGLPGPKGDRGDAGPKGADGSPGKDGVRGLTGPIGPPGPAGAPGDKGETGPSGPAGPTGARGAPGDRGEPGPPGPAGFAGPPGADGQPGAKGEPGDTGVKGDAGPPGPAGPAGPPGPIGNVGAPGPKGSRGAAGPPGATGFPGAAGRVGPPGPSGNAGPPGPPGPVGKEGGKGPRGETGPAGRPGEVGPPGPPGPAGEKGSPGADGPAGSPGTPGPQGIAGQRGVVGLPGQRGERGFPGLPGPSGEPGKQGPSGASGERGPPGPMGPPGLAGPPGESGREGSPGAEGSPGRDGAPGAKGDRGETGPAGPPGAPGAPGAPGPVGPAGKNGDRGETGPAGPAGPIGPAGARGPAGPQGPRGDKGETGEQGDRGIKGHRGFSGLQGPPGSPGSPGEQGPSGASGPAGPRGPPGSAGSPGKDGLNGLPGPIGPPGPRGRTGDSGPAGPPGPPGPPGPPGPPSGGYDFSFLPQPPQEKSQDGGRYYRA
T1 sequence (P02466 86-1125 limits assumed): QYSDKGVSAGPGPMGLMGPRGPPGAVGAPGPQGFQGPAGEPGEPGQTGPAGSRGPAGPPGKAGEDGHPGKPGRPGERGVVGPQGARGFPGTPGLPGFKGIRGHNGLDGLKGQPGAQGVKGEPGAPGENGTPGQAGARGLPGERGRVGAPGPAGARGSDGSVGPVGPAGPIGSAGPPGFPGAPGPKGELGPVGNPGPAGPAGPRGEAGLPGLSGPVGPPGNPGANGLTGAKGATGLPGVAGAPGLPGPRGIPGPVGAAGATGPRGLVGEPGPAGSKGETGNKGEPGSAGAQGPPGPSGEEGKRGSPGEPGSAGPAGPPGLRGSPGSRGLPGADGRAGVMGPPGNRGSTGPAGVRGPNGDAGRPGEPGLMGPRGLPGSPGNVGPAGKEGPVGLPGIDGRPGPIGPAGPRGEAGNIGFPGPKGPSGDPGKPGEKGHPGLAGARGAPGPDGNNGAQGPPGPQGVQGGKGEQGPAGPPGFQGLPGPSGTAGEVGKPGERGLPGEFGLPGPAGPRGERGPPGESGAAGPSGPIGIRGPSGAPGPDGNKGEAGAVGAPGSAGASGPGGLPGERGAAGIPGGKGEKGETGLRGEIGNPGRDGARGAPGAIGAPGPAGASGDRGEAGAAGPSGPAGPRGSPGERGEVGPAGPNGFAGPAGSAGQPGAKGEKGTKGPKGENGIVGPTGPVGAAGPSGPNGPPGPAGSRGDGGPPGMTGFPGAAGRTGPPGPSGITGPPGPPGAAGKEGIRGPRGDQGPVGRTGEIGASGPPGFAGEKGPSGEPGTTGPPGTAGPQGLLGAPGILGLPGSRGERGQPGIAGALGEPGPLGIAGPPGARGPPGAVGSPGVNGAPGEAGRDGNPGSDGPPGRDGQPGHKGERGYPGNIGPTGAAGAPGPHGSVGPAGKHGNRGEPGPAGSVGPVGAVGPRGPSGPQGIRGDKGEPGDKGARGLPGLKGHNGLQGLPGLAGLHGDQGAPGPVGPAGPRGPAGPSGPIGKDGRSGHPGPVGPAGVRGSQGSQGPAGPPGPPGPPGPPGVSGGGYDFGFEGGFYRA

Molecule | inhibition of collagen fibrillogenesis / collagen fibril formation (Collagen - Rat tail) | IOP compared to glaucomatous eyes without any treatment [1] | dose required to achieve a 50% reduction in turbidity (rank order; higher degree of sulphonation requires lower dose) (Collagen - Rat tail)
carrageenan | inhibit collagen fibrillogenesis (indicative of an anti-fibrotic activity) in a dose-dependent manner |  | 
CC(C)OC(=O)CCC/C=C\C[C@@H]1[C@@H](CC[C@@H](O)CCc2ccccc2)[C@H](O)C[C@@H]1O [SOC, latanoprost] |  | significantly reduced IOP | 
heparan sulphate | inhibit collagen fibrillogenesis (indicative of an anti-fibrotic activity) in a dose-dependent manner; also recorded: inhibit collagen fibril formation |  | 
iota carrageenan | inhibit collagen fibril formation |  | lota > lambda > gellan
dextran sulphate | dose-dependent ability to inhibit collagen fibrillogenesis |  | 
kappa carrageenan | inhibit collagen fibril formation |  | 
gellan |  |  | lota > lambda > gellan
